Source: the Kinase Knowledgebase extract (Sharma et al. 2016)
Several values for one entry are separate records, joined by “and”; a condition that tells them apart may be missing. Equal entries are not always repeated.

Target: MAPK14 (UniProt Q16539)
Assay: Inhibition of MAPK14 Kinase Activity

MAPK14, sequence (Q16539 whole entry, looked up): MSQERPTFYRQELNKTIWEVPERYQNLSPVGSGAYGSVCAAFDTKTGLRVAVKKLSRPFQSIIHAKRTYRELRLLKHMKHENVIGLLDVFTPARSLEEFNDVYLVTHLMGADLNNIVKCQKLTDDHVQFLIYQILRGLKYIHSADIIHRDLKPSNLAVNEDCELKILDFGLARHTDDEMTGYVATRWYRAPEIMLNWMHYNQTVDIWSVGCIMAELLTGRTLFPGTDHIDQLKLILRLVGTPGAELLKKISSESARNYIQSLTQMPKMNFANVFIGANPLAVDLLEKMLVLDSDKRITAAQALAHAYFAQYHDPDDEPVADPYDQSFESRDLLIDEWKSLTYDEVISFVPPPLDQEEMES

How did the IC50 turn out when `CN1CCN(Cc2ccc(C(=O)N3CCC(Oc4cc(F)cc(NC(=O)Nc5cc(C(C)(C)C)nn5C)c4)CC3)cc2)CC1` was run?
The IC50 was less than 5 µM.

How did the IC50 turn out when `Cc1ccc(-n2nc(C(C)(C)C)cc2NC(=O)Nc2ccc(N3CCN(C(=O)C4CCOC4)CC3)cc2)cc1` (stereo not given) was run?
Its IC50 is less than 5 µM.

For `Cn1nc(C(C)(C)C)cc1NC(=O)Nc1cc(OC2CCN(C(=O)c3ccccc3Cl)CC2)cc(C(F)(F)F)c1`, which IC50 is on record?
Its IC50 is less than 5 µM.

Which IC50 does the source give for `Cn1nc(C(C)(C)C)cc1NC(=O)Nc1ccc(OC2CCN(C(=O)c3ccccc3Cl)CC2)cc1` here?
Its IC50 is less than 5 µM.

How did the IC50 turn out when `Cc1ccc(-n2nc(C(C)(C)C)cc2NC(=O)Nc2ccc(N3CCN(C(N)=O)CC3)cc2)cc1` was run?
Its IC50 is less than 5 µM.

Which IC50 does the source give for `Cn1nc(C(C)(C)C)cc1NC(=O)Nc1cc(F)cc(OC2CCN(C(=O)c3c(F)cccc3Cl)CC2)c1` here?
The IC50 was less than 5 µM.

`CC(C)n1nc(C(C)(C)C)cc1NC(=O)Nc1ccc(CN2CCN(C(=O)c3c(Cl)cccc3Cl)CC2)cc1F` was tested. Which IC50 did it give?
The IC50 was less than 5 µM.

For `Cc1ccc(-n2nc(C(C)(C)C)cc2NC(=O)Nc2ccc(N3CCN(C(=O)C4(C)CC4)CC3)cc2)cc1`, which IC50 is on record?
The IC50 was less than 5 µM.

Which IC50 does the source give for `Cn1nc(C(C)(C)C)cc1NC(=O)Nc1cccc(OC2CCN(C(=O)c3ccc(Cl)s3)CC2)c1` here?
The IC50 was less than 5 µM.

With `COc1ccc(C(=O)N2CCC(Oc3cc(F)cc(NC(=O)Nc4cc(C(C)(C)C)nn4C)c3)CC2)c(OC)n1` as the molecule, how does the IC50 read?
Its IC50 is less than 5 µM.

How did the IC50 turn out when `COc1ccc(C(=O)N2CCC(Oc3ccc(NC(=O)Nc4cc(C(C)(C)C)nn4C)cc3)CC2)cn1` was run?
The IC50 was less than 5 µM.

How did the IC50 turn out when `CCn1nc(C(C)(C)C)cc1NC(=O)Nc1ccc(CN2CCN(C(=O)c3ccc(F)cc3F)CC2)cc1F` was run?
The IC50 was less than 5 µM.

Which IC50 does the source give for `COc1cccc(F)c1C(=O)N1CCC(Oc2cc(F)cc(NC(=O)Nc3cc(C(C)(C)C)nn3C)c2)CC1` here?
The IC50 was less than 5 µM.

`Cn1nc(C(C)(C)C)cc1NC(=O)Nc1ccc(CN2CCN(C(=O)c3cccnc3)CC2)cc1` was tested. Which IC50 did it give?
The IC50 was less than 5 µM.

Which IC50 does the source give for `Cn1nc(C(C)(C)C)cc1NC(=O)Nc1ccc(CN2CCN(C(=O)c3ccncc3)CC2)cc1` here?
The IC50 was less than 5 µM.

`Cn1nc(C(C)(C)C)cc1NC(=O)Nc1ccc(OC2CCN(C(=O)c3ccccc3)CC2)cc1` was tested. Which IC50 did it give?
Its IC50 is less than 5 µM.

With `Cn1nc(C(C)(C)C)cc1NC(=O)Nc1ccc(N2CCN(C(=O)c3c(Cl)cccc3Cl)CC2)cc1` as the molecule, how does the IC50 read?
The IC50 was less than 5 µM.

With `Cn1nc(C(C)(C)C)cc1NC(=O)Nc1ccc(CN2CCN(C(=O)c3c(Cl)cccc3Cl)CC2)cc1` as the molecule, how does the IC50 read?
The IC50 was less than 5 µM.

`Cn1nc(C(C)(C)C)cc1NC(=O)Nc1ccc(OC2CCN(C(=O)c3c(F)cccc3Cl)CC2)cc1` was tested. Which IC50 did it give?
The IC50 was less than 5 µM.

For `Cn1nc(C(C)(C)C)cc1NC(=O)Nc1ccc(CN2CCN(C(=O)c3ccc(F)cc3)CC2)cc1`, which IC50 is on record?
The IC50 was less than 5 µM.

With `Cc1ccc(-n2nc(C(C)(C)C)cc2NC(=O)Nc2ccc(OC3CCN(C(=O)C4CC4)CC3)cc2)cc1` as the molecule, how does the IC50 read?
Its IC50 is less than 5 µM.

With `Cc1ccsc1C(=O)N1CCC(Oc2ccc(NC(=O)Nc3cc(C(C)(C)C)nn3C)cc2)CC1` as the molecule, how does the IC50 read?
Its IC50 is less than 5 µM.

How did the IC50 turn out when `CC(=O)N1CCN(Cc2ccc(NC(=O)Nc3cc(C(C)(C)C)nn3C)cc2)CC1` was run?
The IC50 was less than 5 µM.

With `Cc1ccc(-n2nc(C(C)(C)C)cc2NC(=O)Nc2ccc(OCCC3CCN(C(=O)c4c(Cl)cccc4Cl)CC3)c3ccccc23)cc1` as the molecule, how does the IC50 read?
The IC50 was less than 5 µM.

How did the IC50 turn out when `Cn1nc(C(C)(C)C)cc1NC(=O)Nc1cc(F)cc(OC2CCN(C(=O)c3ccc4cc[nH]c4c3)CC2)c1` was run?
The IC50 was less than 5 µM.

For `Cn1nc(C(C)(C)C)cc1NC(=O)Nc1ccc(OC2CCN(C(=O)C3(c4ccccc4)CC3)CC2)cc1`, which IC50 is on record?
The IC50 was less than 5 µM.

Which IC50 does the source give for `Cn1nc(C(C)(C)C)cc1NC(=O)Nc1ccc(OC2CCN(S(C)(=O)=O)CC2)cc1` here?
Its IC50 is less than 5 µM.

How did the IC50 turn out when `Cn1nc(C(C)(C)C)cc1NC(=O)Nc1cccc(OC2CCN(C(=O)c3ccc(Br)s3)CC2)c1` was run?
The IC50 was less than 5 µM.

`Cn1nc(C(C)(C)C)cc1NC(=O)Nc1cc(F)cc(OC2CCN(C(=O)c3ccccc3)CC2)c1` was tested. Which IC50 did it give?
Its IC50 is less than 5 µM.

How did the IC50 turn out when `Cn1nc(C(C)(C)C)cc1NC(=O)Nc1ccc(CN2CCN(C(=O)c3c(F)cccc3F)CC2)cc1` was run?
The IC50 was 0.01 µM and < 5 µM.

With `Cn1nc(C(C)(C)C)cc1NC(=O)Nc1ccc(OC2CCN(C(=O)c3c(F)cccc3F)CC2)cc1` as the molecule, how does the IC50 read?
Its IC50 is less than 5 µM.

With `CO[C@H](C)C(=O)N1CCN(c2ccc(NC(=O)Nc3cc(C(C)(C)C)nn3-c3ccc(C)cc3)cc2)CC1` as the molecule, how does the IC50 read?
The IC50 was less than 5 µM.

Which IC50 does the source give for `Cn1nc(C(C)(C)C)cc1NC(=O)Nc1cccc(OC2CCN(C(=O)c3ccccc3C(F)(F)F)CC2)c1` here?
Its IC50 is less than 5 µM.

For `Cn1nc(C(C)(C)C)cc1NC(=O)Nc1ccc(OC2CCN(C(=O)C3CC3)CC2)cc1`, which IC50 is on record?
The IC50 was less than 5 µM.

For `Cc1nn(C)c(C)c1C(=O)N1CCC(Oc2ccc(NC(=O)Nc3cn(C)nc3C(C)(C)C)cc2)CC1`, which IC50 is on record?
Its IC50 is less than 5 µM.

`Cc1cc(C(=O)N2CCC(Oc3cccc(NC(=O)Nc4cc(C(C)(C)C)nn4C)c3)CC2)c(C)[nH]1` was tested. Which IC50 did it give?
Its IC50 is less than 5 µM.

Which IC50 does the source give for `Cn1nc(C(C)(C)C)cc1NC(=O)Nc1cc(F)cc(OC2CCN(C(=O)C(C)(C)C)CC2)c1` here?
Its IC50 is 0.019 µM.

Which IC50 does the source give for `CC(C)C(=O)N1CCC(Oc2ccc(NC(=O)Nc3cc(C(C)(C)C)nn3C)cc2)CC1` here?
Its IC50 is less than 5 µM.

With `Cc1ccc(-n2nc(C(C)(C)C)cc2NC(=O)Nc2ccc(N3CCN(C(=O)C4CC4)CC3)cc2)cc1` as the molecule, how does the IC50 read?
Its IC50 is less than 5 µM.

With `CC(C)(C)c1cc(NC(=O)Nc2ccc(OC3CCN(C(=O)c4c(F)cccc4F)CC3)cc2)[nH]n1` as the molecule, how does the IC50 read?
The IC50 was less than 5 µM.

Which IC50 does the source give for `Cc1ccc(-n2nc(C(C)(C)C)cc2NC(=O)Nc2ccc(N3CCN(C(=O)C4CCCNC4)CC3)cc2)cc1` (stereo not given) here?
The IC50 was less than 5 µM.

For `Cn1nc(C(C)(C)C)cc1NC(=O)Nc1cc(F)cc(OC2CCN(C(=O)c3c(F)cccc3F)CC2)c1`, which IC50 is on record?
The IC50 was less than 5 µM.

For `Cn1nc(C(C)(C)C)cc1NC(=O)Nc1cccc(OC2CCN(C(=O)c3ccccc3Cl)CC2)c1`, which IC50 is on record?
The IC50 was less than 5 µM.

Which IC50 does the source give for `CC(C)(C)c1cc(NC(=O)Nc2ccc(CN3CCN(C(=O)c4c(F)cccc4F)CC3)c(F)c2)n(C(C)(C)C)n1` here?
The IC50 was less than 5 µM.

How did the IC50 turn out when `Cc1ccc(-n2nc(C(C)(C)C)cc2NC(=O)Nc2cc(F)cc(OC3CCN(C(=O)c4sccc4C)CC3)c2)cc1` was run?
Its IC50 is less than 5 µM.

With `Cn1nc(C(C)(C)C)cc1NC(=O)Nc1ccc(OC2CCN(C(=O)c3ccc(Cl)nc3)CC2)cc1` as the molecule, how does the IC50 read?
The IC50 was less than 5 µM.

Which IC50 does the source give for `Cn1nc(C(C)(C)C)cc1NC(=O)Nc1ccc(CN2CCN(C(=O)c3c(F)cccc3F)CC2)c(F)c1` here?
Its IC50 is less than 5 µM.

Which IC50 does the source give for `Cn1nc(C(C)(C)C)cc1NC(=O)Nc1ccc(CN2CCN(C(=O)c3ccc(F)cc3F)CC2)cc1` here?
The IC50 was less than 5 µM.

Which IC50 does the source give for `Cn1nc(C(C)(C)C)cc1NC(=O)Nc1cc(F)cc(OC2CCN(C(=O)c3ccccc3C(F)(F)F)CC2)c1` here?
The IC50 was less than 5 µM.

`Cn1nc(C(C)(C)C)cc1NC(=O)Nc1ccc(OC2CCN(C(=O)c3ccccc3C(F)(F)F)CC2)cc1` was tested. Which IC50 did it give?
The IC50 was less than 5 µM.

For `Cn1nc(C(C)(C)C)cc1NC(=O)Nc1ccc(OC2CCN(C(=O)c3ccccc3F)CC2)cc1`, which IC50 is on record?
Its IC50 is less than 5 µM.

`Cn1nc(C(C)(C)C)cc1NC(=O)Nc1ccc(OC2CCN(C(=O)OC(C)(C)C)CC2)cc1` was tested. Which IC50 did it give?
The IC50 was less than 5 µM.

`Cn1nc(C(C)(C)C)cc1NC(=O)Nc1cccc(OC2CCN(C(=O)c3sccc3Cl)CC2)c1` was tested. Which IC50 did it give?
Its IC50 is less than 5 µM.

With `CN(C)CCOc1ccc(C(=O)N2CCC(Oc3cc(F)cc(NC(=O)Nc4cc(C(C)(C)C)nn4C)c3)CC2)cc1` as the molecule, how does the IC50 read?
Its IC50 is less than 5 µM.

`Cn1nc(C(C)(C)C)cc1NC(=O)Nc1cccc(OC2CCN(C(=O)c3ccccc3OC(F)(F)F)CC2)c1` was tested. Which IC50 did it give?
Its IC50 is less than 5 µM.

For `Cn1nc(C(C)(C)C)cc1NC(=O)Nc1ccc(OC2CCN(C(=O)c3c(Cl)cncc3Cl)CC2)cc1`, which IC50 is on record?
The IC50 was less than 5 µM.

With `Cn1nc(C(C)(C)C)cc1NC(=O)Nc1cc(F)cc(OC2CCN(C(=O)C3CC3(Cl)Cl)CC2)c1` (stereo not given) as the molecule, how does the IC50 read?
The IC50 was less than 5 µM.

With `COc1ncccc1C(=O)N1CCC(Oc2ccc(NC(=O)Nc3cc(C(C)(C)C)nn3C)cc2)CC1` as the molecule, how does the IC50 read?
Its IC50 is less than 5 µM.

`Cc1ccc(OC2CCN(C(=O)c3ccccc3Cl)CC2)cc1NC(=O)Nc1cc(C(C)(C)C)nn1C` was tested. Which IC50 did it give?
The IC50 was less than 5 µM.

Which IC50 does the source give for `Cn1nc(C(C)(C)C)cc1NC(=O)Nc1ccc(OC2CCN(C(=O)C3CCCC3)CC2)cc1` here?
The IC50 was less than 5 µM.

How did the IC50 turn out when `Cn1nc(C(C)(C)C)cc1NC(=O)Nc1cc(F)cc(OC2CCN(C(=O)c3ccccc3OC(F)(F)F)CC2)c1` was run?
Its IC50 is less than 5 µM.

With `Cc1ccc(-n2nc(C(C)(C)C)cc2NC(=O)Nc2ccc(N3CCN(C(=O)C4CC4C)CC3)cc2)cc1` (stereo not given) as the molecule, how does the IC50 read?
The IC50 was less than 5 µM.

How did the IC50 turn out when `Cn1nc(C(C)(C)C)cc1NC(=O)Nc1ccc(CN2CCN(C(=O)c3c(F)cccc3F)CC2)cc1F` was run?
Its IC50 is less than 5 µM.

With `Cn1nc(C(C)(C)C)cc1NC(=O)Nc1ccc(CN2CCN(C(=O)c3ccc(F)cc3F)CC2)cc1F` as the molecule, how does the IC50 read?
The IC50 was less than 5 µM.

`Cn1nc(C(C)(C)C)cc1NC(=O)Nc1cc(F)cc(OC2CCN(C(=O)c3ccc4[nH]ccc4c3)CC2)c1` was tested. Which IC50 did it give?
Its IC50 is less than 5 µM.
